Laboratory results from patent publication US8597264B2, “Apparatuses, methods, and compositions for the treatment and prophylaxis of chronic wounds” (KCI Licensing, Inc., priority 2011, dated 2013).

Tests used:
[1] = molecular target: T1, MMP-9 (Homo sapiens, UniProt P14780); test: MMP-9 Colorimetric Drug Discovery Kit (Biomol): MMP activity reduction by dressings; format: biochemical; settings: compared to control samples with no MMP-9 inhibitor activity
T1 construct: purchased Biomol
From the text: A National Diagnostics Hydrogen Peroxide Assay Kit was used to evaluate the antioxidant properties of foam pads and the formulated coated foam pads containing alpha-lipoic acid. Foam pads coated only with gelatin were used as controls. FIG. 2 is a graph showing the percentage of hydrogen peroxide reduction due to reaction with alpha-lipoic acid. An MMP-9 Colorimetric Drug Discovery Kit (Biomol) was used to evaluate the MMP inhibiting/inactivating ability of the formulated foam pads containing alpha-lipoic acid/gelatin (ALA) and gelatin alone (GF GEL). The controls were uncoated foam pads and known potent MMP inactivating drug, NNGH (C13H20N2O5S, available from Enzo® Life Sciences). […] FIG. 4 is a graph showing the release of alpha-lipoic acid from the coating on the foam pads. The coating delivers approximately 70% of the total alpha-lipoic acid within the first day, while the remaining alpha-lipoic acid is released during the next 2-3 days.
Coated polyurethane foam (GranuFoam®) scaffolds described above in Examples 1-2 were further assayed for their ability to reduce MMP activity as compared to non-coated collagen based scaffold such as the Biostep™ and Promogran™ products.

[2] = Release of alpha-lipoic acid from the coating on foam pads; format: physicochemical; settings: coating on foam pads (FIG. 4)
From the text: Polyurethane open-cell reticulated foam pads were selected as the scaffold and were immersed in a solution containing 1.5 wt % of alpha-lipoic acid and 4.5 wt % 225-bloom beef gelatin (and, where applicable, 0.3% EDTA). Gelatin was used as a biocompatible binding agent with good oxygen barrier and sustained release properties for alpha-lipoic acid as well as for its ability to act as a sacrificial substrate for surrounding gelatinases. Alpha-lipoic acid was pre-dissolved in ethanol and then mixed into the final solution. The foam pads were immersed for a sufficient amount of time to coat the pathways formed within the open-cell reticulated foam as described above with respect to the scaffold. After immersion, the foam pads were withdrawn, compressed to remove excess solution, and dried to a constant weight. In some cases, sodium benzoate was added to the formulation as a preservative. Dried foams comprised, by weight, 2% alpha-lipoic acid, 6% gelatin and, where applicable, 0.4% EDTA.
A National Diagnostics Hydrogen Peroxide Assay Kit was used to evaluate the antioxidant properties of foam pads and the formulated coated foam pads containing alpha-lipoic acid. Foam pads coated only with gelatin were used as controls. FIG. 2 is a graph showing the percentage of hydrogen peroxide reduction due to reaction with alpha-lipoic acid. […]

T1 sequence (P14780 107-444 limits assumed): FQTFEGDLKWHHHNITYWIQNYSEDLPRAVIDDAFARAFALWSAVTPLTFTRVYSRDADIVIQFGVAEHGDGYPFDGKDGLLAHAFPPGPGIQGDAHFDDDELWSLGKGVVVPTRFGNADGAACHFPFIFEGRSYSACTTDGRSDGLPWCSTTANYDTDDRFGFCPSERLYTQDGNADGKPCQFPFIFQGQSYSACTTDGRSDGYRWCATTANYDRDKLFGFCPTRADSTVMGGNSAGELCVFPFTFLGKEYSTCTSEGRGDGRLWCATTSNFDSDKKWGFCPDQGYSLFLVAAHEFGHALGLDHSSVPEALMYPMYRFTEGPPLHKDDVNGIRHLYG

Row | time over which the remaining alpha-lipoic acid is released ([2]; after the first day) [days] | share of the total alpha-lipoic acid delivered by the coating ([2]; within the first day) | SMILES | % MMP-9 activity reduction ([1]; Table 1 experiment) [%] | % MMP-9 activity reduction ([1]; Table 2 experiment) [%]
1 |  |  | COc1ccc(S(=O)(=O)N(CC(=O)NO)CC(C)C)cc1 [NNGH] | 90.2 | 103.8
2 | 2 to 3 | approximately 70% | O=C(O)CCCCC1CCSS1 (stereo not drawn) [alpha-lipoic acid] |  | 
